Data from patent US12091425B2 (AMGEN INC., priority 2016, dated 2024).

Tests used:
[1] = tested on: OPM-2 human multiple myeloma cell line; test: Cell Viability Assay (OPM-2 10 FBS); type: cell-based; settings: OPM-2 cells, CellTiter-Glo
Method in brief: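 IC50 from 4-parameter logistic fit of CellTiter-Glo luminescence. 3000 cells/well, 10% FBS medium, serial compound dilutions, 16 h, 37 °C/5% CO2; read 25 min post-reagent.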

[2] = target: T1, Mcl-1/Bim interaction, recombinant human Mcl-1 (171-327) (Homo sapiens, UniProt Q07820); test: Cell free Mcl-1: Bim Affinity Assay (Mcl-1 HTRF); type: binding
T1 construct: made in house
T1 sequence (Q07820 171-327): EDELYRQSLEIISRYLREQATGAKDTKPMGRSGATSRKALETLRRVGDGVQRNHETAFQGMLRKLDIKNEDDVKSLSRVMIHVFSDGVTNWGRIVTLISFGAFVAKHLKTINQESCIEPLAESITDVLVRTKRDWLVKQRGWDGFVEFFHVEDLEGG
Method in brief: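 Biotin-Bim(51-76) peptide, TR-FRET readout, overnight incubation; IC50 from duplicate competition curves, 4-parameter fit.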

[3] = cell free Mcl-1:Bim TR-FRET, recombinant human Mcl-1 (171-327)
[4] = Homo sapiens, OPM-2, 16 h, 16 h
[5] = TR-FRET, 0.1 nM Mcl-1 (171-327), 0.05 nM biotin-Bim (51-76)
[6] = Homo sapiens, OPM-2, 16 h, 16 h incubation

| Structure (SMILES) | IC50 ([1]; 16 h) | IC50 [2, 3] | IC50 [1, 4] | IC50 [2, 5] | further results |
| --- | --- | --- | --- | --- | --- |
| O=C1NS(=O)(=O)C/C=C/[C@]2(O)CCO[C@@H](C2)[C@@H]2CC[C@H]2CN2C[C@@]3(CCCc4cc(Cl)ccc43)COc3ccc1cc32 (single isomer, unassigned) [Example 918] | 15100 nM | 2.75 nM | – | – | – |
| CC1C(C2CC2)CC=CC(O)C2CCC2CN2CC3(CCCc4cc(Cl)ccc43)COc3ccc(cc32)C(=O)NS1(=O)=O (single isomer, unassigned) [Example 677] | – | 9.57 nM | 3550 nM | – | – |
| C[C@H](O)C[C@@H]1CC/C=C\[C@H](O)[C@@H]2CC[C@H]2CN2C[C@@]3(CCCc4cc(Cl)ccc43)COc3ccc(cc32)C(=O)NS1(=O)=O (single isomer, unassigned) [Example 547] | 2220 nM | 0.239 nM | – | – | – |
| O=C1NS(=O)(=O)[C@H](CC2CCOCC2)CC/C=C/[C@H](O)[C@@H]2CC[C@H]2CN2C[C@@]3(CCCc4cc(Cl)ccc43)COc3ccc1cc32 (single isomer, unassigned) [Example 186] | 4660 nM | – | – | 7.91 nM | – |
| CN(C)C(=O)CCO[C@@H]1/C=C/CCCS(=O)(=O)NC(=O)c2ccc3c(c2)N(C[C@@H]2CC[C@H]21)C[C@@]1(CCCc2cc(Cl)ccc21)CO3 [Example 211, 3-(((1S,3′R,6′R,7′R,8′E)-6-chloro-13′,13′-dioxido-15′-oxo-3,4-dihydro-2H-spiro[naphthalene-1,22′-[20]oxa[13]thia[1,14]diazatetracyclo[14.7.2.0^3,6.0^19,24]pentacosa [8,16,18,24]tetraen]-7′-yl)oxy)-N,N-dimethylpropanamide] | – | – | 2370 nM | 1.11 nM | – |
| CO[C@H]1/C=C/[C@@H](C)C[C@@H](C)S(=O)(=O)NC(=O)c2ccc3c(c2)N(C[C@@H]2CC[C@H]21)C[C@@]1(CCCc2cc(Cl)ccc21)CO3 [Example 1019, (1S,3′R,6′R,7′S,8′E,10′S,12′R)-6-chloro-7′-methoxy-10′,12′-dimethyl-3,4-dihydro-2H,15′H-spiro[naphthalene-1,22′-[20]oxa[13]thia[1,14]diazatetracyclo[14.7.2.0^3,6.0^19,24]pentacosa [8,16,18,24]tetraen]-15′-one 13′,13′-dioxide] | – | – | – | 0.497 nM | IC50 [1, 6]: 475 nM |
| COCC1C(C)CC=CC(OC)C2CCC2CN2CC3(CCCc4cc(Cl)ccc43)COc3ccc(cc32)C(=O)NS1(=O)=O (single isomer, unassigned) [Example 460] | – | – | 132 nM | 0.334 nM | – |
| O=C1NS(=O)(=O)[C@@H]2CCC[C@@H]2C/C=C/[C@H](O)[C@@H]2CC[C@H]2CN2C[C@@]3(CCCc4cc(Cl)ccc43)COc3ccc1cc32 (single isomer, unassigned) [Example 323] | – | – | 2980 nM | 2.02 nM | – |
| CN(C)S(=O)(=O)N1CCN(C(=O)C[C@@H]2CC/C=C/[C@H](O)[C@@H]3CC[C@H]3CN3C[C@@]4(CCCc5cc(Cl)ccc54)COc4ccc(cc43)C(=O)NS2(=O)=O)CC1 (single isomer, unassigned) [Example 631] | 2530 nM | 0.298 nM | – | – | – |
| COc1ccc(CN2[C@@H](C)C/C=C/[C@H](O)[C@@H]3CC[C@H]3CN3C[C@@]4(CCCc5cc(Cl)ccc54)COc4ccc(cc43)C(=O)NS2(=O)=O)cc1 (single isomer, unassigned) [Example 80] | – | – | 6530 nM | 8.98 nM | – |
| COCCO[C@H]1/C=C/C[C@@H](C)CS(=O)(=O)NC(=O)c2ccc3c(c2)N(C[C@@H]2CC[C@H]21)C[C@@]1(CCCc2cc(Cl)ccc21)CO3 (single isomer, unassigned) [Example 375] | 5700 nM | – | – | 7.73 nM | – |
| N#CCC[C@@H]1CC/C=C/[C@H](O)[C@@H]2CC[C@H]2CN2C[C@@]3(CCCc4cc(Cl)ccc43)COc3ccc(cc32)C(=O)NS1(=O)=O (single isomer, unassigned) [Example 613] | – | 0.329 nM | 1540 nM | – | – |
| C[C@H]1C/C=C/[C@H](O)[C@@H]2CC[C@H]2CN2C[C@@]3(CCCc4cc(Cl)ccc43)COc3ccc(cc32)C(=O)NS(=O)(=O)N1Cc1ccccn1 (single isomer, unassigned) [Example 667] | 378 nM | 0.244 nM | – | – | – |
| C[C@@H]1[C@@H](C)S(=O)(=O)NC(=O)c2ccc3c(c2)N(C[C@@H]2CC[C@H]2[C@@H](OCC(=O)O)/C=C/[C@@H]1C)C[C@@]1(CCCc2cc(Cl)ccc21)CO3 [Example 1051, (((1S,3′R,6′R,7′S,8′E,10′S,11′S,12′R)-6-chloro-10′,11′,12′-trimethyl-13′,13′-dioxido-15′-oxo-3,4-dihydro-2H-spiro[naphthalene-1,22′-[20]oxa[13]thia[1,14]diazatetracyclo[14.7.2.0^3,6.0^19,24]pentacosa [8,16,18,24]tetraen]-7′-yl)oxy)acetic Acid] | – | – | – | 0.0197 nM | IC50 [1, 6]: 1900 nM |
| C[C@@H]1[C@@H](C)C/C=C/[C@H](OCC(=O)N2CC[C@@H](O)C2)[C@@H]2CC[C@H]2CN2C[C@@]3(CCCc4cc(Cl)ccc43)COc3ccc(cc32)C(=O)NS1(=O)=O [Example 311, (1S,3′R,6′R,7′S,8′E,11′S,12′R)-6-chloro-7′-(2-((3R)-3-hydroxy-1-pyrrolidinyl)-2-oxoethoxy)-11′,12′-dimethyl-3,4-dihydro-2H,15′H-spiro[naphthalene-1,22′-[20]oxa[13]thia[1,14]diazatetracyclo[14.7.2.0^3,6.0^19,24]pentacosa [8,16,18,24]tetraen]-15′-one 13′,13′-dioxide] | – | – | 1400 nM | 0.138 nM | – |
| CO[C@H]1/C=C/C[C@@H]2COC[C@H]2S(=O)(=O)NC(=O)c2ccc3c(c2)N(C[C@@H]2CC[C@H]21)C[C@@]1(CCCc2cc(Cl)ccc21)CO3 (single isomer, unassigned) [Example 1032] | – | – | – | 0.422 nM | IC50 ([1]; 16 h incubation): 575 nM |
| C[C@@H]1[C@@H](C)C/C=C/[C@H](OCC(=O)N2CCNC(=O)C2)[C@@H]2CC[C@H]2CN2C[C@@]3(CCCc4cc(Cl)ccc43)COc3ccc(cc32)C(=O)NS1(=O)=O [Example 314, (1S,3′R,6′R,7′S,8′E,11′S,12′R)-6-chloro-11′,12′-dimethyl-7′-(2-oxo-2-(3-oxo-1-piperazinyl)ethoxy)-3,4-dihydro-2H,15′H-spiro[naphthalene-1,22′-[20]oxa[13]thia[1,14]diazatetracyclo[14.7.2.0^3,6.0^19,24]pentacosa [8,16,18,24]tetraen]-15′-one 13′,13′-dioxide] | – | – | 2120 nM | 0.136 nM | – |
| O=C1NS(=O)(=O)[C@H](Cc2nccs2)CC/C=C/[C@H](O)[C@@H]2CC[C@H]2CN2C[C@@]3(CCCc4cc(Cl)ccc43)COc3ccc1cc32 (single isomer, unassigned) [Example 373] | 404 nM | – | – | 0.731 nM | – |
| CC(C)OC(=O)C[C@@H]1[C@@H](C)C/C=C\[C@H](O)[C@@H]2CC[C@H]2CN2C[C@@]3(CCCc4cc(Cl)ccc43)COc3ccc(cc32)C(=O)NS1(=O)=O [Example 570] | 3020 nM | 8.44 nM | – | – | – |
| CC[C@@H]1CC/C=C/[C@H](O[C@H]2CCOC2=O)[C@@H]2CC[C@H]2CN2C[C@@]3(CCCc4cc(Cl)ccc43)COc3ccc(cc32)C(=O)NS1(=O)=O (single isomer, unassigned) [Example 425] | 304 nM | – | – | 0.4 nM | – |
| COCCOCCN1CC/C=C/[C@H](O)[C@@H]2CC[C@H]2CN2C[C@@]3(CCCc4cc(Cl)ccc43)COc3ccc(cc32)C(=O)NS1(=O)=O [Example 22, (1S,3′R,6′R,7′S,8′E)-6-chloro-7′-hydroxy-12′-(2-(2-methoxyethoxy)ethyl)-3,4-dihydro-2H,15′H-spiro[naphthalene-1,22′-[20]oxa[13]thia[1,12,14]triazatetracyclo[14.7.2.0^3,6.0^19,24]pentacosa[8,16,18,24]tetraen]-15′-one 13,13′-dioxide] | – | – | 276 nM | 0.37 nM | – |
| CC1CC=CC(O)C2CCC2CN2CC3(CCCc4cc(Cl)ccc43)COc3ccc(cc32)C(=O)NS(=O)(=O)N1Cc1ccccn1 (single isomer, unassigned) [Example 668] | – | 17 nM | 11600 nM | – | – |
| C[C@@H]1[C@@H](C)C/C=C/[C@H](OCC(=O)N2CC(C)(O)C2)[C@@H]2CC[C@H]2CN2C[C@@]3(CCCc4cc(Cl)ccc43)COc3ccc(cc32)C(=O)NS1(=O)=O [Example 305, (1S,3′R,6′R,7′S,8′E,11′S,12′R)-6-chloro-7′-(2-(3-hydroxy-3-methyl-1-azetidinyl)-2-oxoethoxy)-11′,12′-dimethyl-3,4-dihydro-2H,15′H-spiro[naphthalene-1,22′-[20]oxa[13]thia[1,14]diazatetracyclo[14.7.2.0^3,6.0^19,24]pentacosa [8,16,18,24]tetraen]-15′-one 13′,13′-dioxide] | – | – | 998 nM | 0.177 nM | – |
| C[C@@H]1[C@@H](C)C/C=C/[C@H](OCc2ncccn2)[C@@H]2CC[C@H]2CN2C[C@@]3(CCCc4cc(Cl)ccc43)COc3ccc(cc32)C(=O)NS1(=O)=O [Example 317, (1S,3′R,6′R,7′S,8′E,11′S,12′R)-6-chloro-11′,12′-dimethyl-7′-(2-pyrimidinylmethoxy)-3,4-dihydro-2H,15′H-spiro[naphthalene-1,22′-[20]oxa[13]thia[1,14]diazatetracyclo[14.7.2.0^3,6.0^19,24]pentacosa [8,16,18,24]tetraen]-15′-one 13′,13′-dioxide] | – | – | 196 nM | 0.223 nM | – |
| CCOC[C@@H]1[C@@H](C)C/C=C/[C@H](O)[C@@H]2CC[C@H]2CN2C[C@@]3(CCCc4cc(Cl)ccc43)COc3ccc(cc32)C(=O)NS1(=O)=O (single isomer, unassigned) [Example 466] | 128 nM | – | – | 0.331 nM | – |
| COC1C=CC(CO)CC(C)S(=O)(=O)NC(=O)c2ccc3c(c2)N(CC2CCC21)CC1(CCCc2cc(Cl)ccc21)CO3 (single isomer, unassigned) [Example 128] | – | – | 2520 nM | 0.603 nM | – |
